Reference: PMC8306930, “A Comparative Analysis of the In Vitro Anticancer Activity of Iridium(III) {η^5-C5Me4R} Complexes with Variable R Groups” (International Journal of Molecular Sciences, 2021)

Tests used:
[1] = system: MCF-7 human breast cancer cells; assay: CV viability assay, MCF-7; assay type: cell-based; settings: MCF-7, 72 h exposure, mean ± SD
Source text: (§1) The rat astrocytoma C6 cell line and murine melanoma B16 cell line were kindly gifted by Dr. L. Harhaji–Trajkovic, Institute for Biological Research “Sinisa Stankovic”—National Institute of Republic of Serbia (IBISS), and from Dr. Sinisa Radulovic (Institute for Oncology and Radiology of Serbia), respectively. Human colorectal (SW620 and HCT116), breast (MCF-7), and ovarian (A2780) cancer cell lines and non-malignant fibroblast cell line (MRC5) were purchased from the American Type Culture Collection (ATCC, Manassas, Virginia, USA). […] For viability assays, cells were seeded in listed densities/well: B16 and C6: 3 × 10^3; SW620: 9 × 10^3; A2780 and HCT116: 5 × 10^3; MCF-7: 8 × 10^3 and MRC5: 7 × 10^3. For flow cytometry, A2780 cells were seeded at 2 × 10^5 density/well in 6-well plates. Peritoneal macrophages were collected from the peritoneal cavity of C57BL/6 mice from the animal facility of IBISS by cavity lavage with ice-cold PBS. […] Macrophages were counted, seeded at 2 × 10^5 cells/well in 96-well plates for viability assay, and then left for 2 h to adhere. Before treatment, non-adherent cells were removed. The handling of animals and protocol for obtaining macrophages is in the agreement with the rules of the European Union and approved by the Institutional Animal Care and Use Committee at IBISS (No. 02-09/16).
(§2) Stock solutions of 1b, 1c, 1d, and 1e were prepared in ethanol at concentration of 20 mM and kept at −20 °C, while 10 mM stock solution of cisplatin was prepared in DMF just before the usage. Desired final concentrations were obtained by dilution in culture medium.
(§3) Cells were treated with various concentrations (up to 50 or 100 µM) of the above-mentioned complexes for 72 h. For the detection of mitochondrial respiration, cells were cultivated in the presence of MTT staining solution (0.5 mg/mL) for approximately 1 h at 37 °C. The dye was then discarded, and the formed formazan crystals (purple) were dissolved in DMSO. For an evaluation of viable attached cells, cells were fixed with 4% PFA for 10 min at room temperature, and subsequently stained for 15 min with 0.02% CV solution. […] The absorbance was measured with an automated microplate reader at 540 nm, with a reference wavelength of 670 nm. The IC50 values were calculated using a four-parameter logistic function and presented as mean ± SD from three independent experiments.

[2] = system: C6 rat glioma cells; assay: CV viability assay, C6; assay type: cell-based; settings: C6, 72 h exposure, mean ± SD
Source text: as §1, §2, §3

[3] = system: B16 mouse melanoma cells; assay: MTT viability assay, B16; assay type: cell-based; settings: B16, 72 h exposure, mean ± SD
Source text: as §1, §2, §3

[4] = system: panel of six human and rodent cancer cell lines and MRC5; assay: Cytotoxic activity over the whole cell line panel (MTT and CV); assay type: cell-based; settings: 72 h; for Cytotoxic activity in words: all investigated cell lines
Protocol: Cells were treated with various concentrations (up to 50 or 100 µM) of the above-mentioned complexes for 72 h. For the detection of mitochondrial respiration, cells were cultivated in the presence of MTT staining solution (0.5 mg/mL) for approximately 1 h at 37 °C. The dye was then discarded, and the formed formazan crystals (purple) were dissolved in DMSO. For an evaluation of viable attached cells, cells were fixed with 4% PFA for 10 min at room temperature, and subsequently stained for 15 min with 0.02% CV solution. Cells were then washed with tap water, dried in air, and the CV dye was dissolved in 33% acetic acid. The absorbance was measured with an automated microplate reader at 540 nm, with a reference wavelength of 670 nm. The IC50 values were calculated using a four-parameter logistic function and presented as mean ± SD from three independent experiments.

[5] = system: HCT116 human colorectal carcinoma cells; assay: MTT viability assay, HCT116; assay type: cell-based; settings: HCT116, 72 h exposure, mean ± SD
Source text: as §1, §2, §3

[6] = system: A2780 human ovarian cancer cells; assay: CV viability assay, A2780; assay type: cell-based; settings: A2780, 72 h exposure, mean ± SD
Source text: as §1, §2, §3

[7] = system: HCT116 human colorectal carcinoma cells; assay: CV viability assay, HCT116; assay type: cell-based; settings: HCT116, 72 h exposure, mean ± SD
Source text: as §1, §2, §3

[8] = system: MRC5 human fibroblast cells; assay: CV viability assay, MRC5; assay type: cell-based; settings: MRC5, 72 h exposure, mean ± SD
Source text: as §1, §2, §3

[9] = system: SW620 human colorectal adenocarcinoma cells; assay: MTT viability assay, SW620; assay type: cell-based; settings: SW620, 72 h exposure, mean ± SD
Source text: as §1, §2, §3

[10] = system: SW620 human colorectal adenocarcinoma cells; assay: CV viability assay, SW620; assay type: cell-based; settings: SW620, 72 h exposure, mean ± SD
Source text: as §1, §2, §3

[11] = system: B16 mouse melanoma cells; assay: CV (crystal violet) viability assay, B16; assay type: cell-based; settings: B16, 72 h exposure, mean ± SD
Source text: as §1, §2, §3

[12] = Stability in D2O mixtures by 1H NMR; assay type: physicochemical; settings: for Variation of 1H NMR spectra on storage: acetone-d6/D2O 2:1 (1b,d) or methanol-d4/D2O 2:1 (1c), 72 h at 37 °C, progressive precipitation
Protocol: Complexes were dissolved in acetone-d6/D2O 2:1 (1b,d), DMSO-d6/D2O 2:1 (2a–d and 3), or methanol-d4/D2O 2:1 (1c) ([Ir] ≈ 10^−3 mol L^−1), then dimethyl sulfone (0.05 mL, 0.164 mmol) was added as internal standard. The mixtures were filtered through a celite pad, and the filtrated solutions were analyzed by ^1H NMR spectroscopy.
The solutions were then stored for 72 h at 37 °C, and new NMR analyses were subsequently performed.

[13] = system: A2780 human ovarian cancer cells; assay: MTT viability assay, A2780; assay type: cell-based; settings: A2780, 72 h exposure, mean ± SD
Source text: as §1, §2, §3

[14] = system: C6 rat glioma cells; assay: MTT viability assay, C6; assay type: cell-based; settings: C6, 72 h exposure, mean ± SD
Source text: as §1, §2, §3

[15] = system: MCF-7 human breast cancer cells; assay: MTT viability assay, MCF-7; assay type: cell-based; settings: MCF-7, 72 h exposure, mean ± SD
Source text: as §1, §2, §3

[16] = system: MRC5 human fibroblast cells; assay: MTT viability assay, MRC5; assay type: cell-based; settings: MRC5, 72 h exposure, mean ± SD
Source text: as §1, §2, §3

SMILES	IC50 [1] [µM]	IC50 [2] [µM]	IC50 [3] [µM]	Cytotoxic activity in words [4]	IC50 [5] [µM]	IC50 [6] [µM]	IC50 [7] [µM]	IC50 [8] [µM]	IC50 [9] [µM]	IC50 [10] [µM]	IC50 [11] [µM]	Variation of 1H NMR spectra on storage [12]	IC50 [13] [µM]	IC50 [14] [µM]	IC50 [15] [µM]	IC50 [16] [µM]	IC50 ([4]; cell lines on which 1e is active, read-out: IC50 values, range over sensitive cell lines) [µM]	Behaviour in aqueous media in the presence of DMSO ([12]; aqueous media with DMSO)	Fraction of unaltered compound ([12]; DMSO-d6/D2O 2:1, 72 h at 37 °C, 1H NMR, dimethyl sulfone standard) [%]
Cc1[cH-]c(C)c(C)c1C.Cc1[cH-]c(C)c(C)c1C.[Cl-].[Cl-].[Cl-].[Cl-].[Ir+3].[Ir+3] [Complex 1b]	> 50	> 50	> 50	substantially inactive	> 50	> 50	> 50	> 50	> 50	> 50	> 50	no significant variations	> 50	> 50	> 50	> 50			
CCC[c-]1c(C)c(C)c(C)c1C.CCC[c-]1c(C)c(C)c(C)c1C.[Cl-].[Cl-].[Cl-].[Cl-].[Ir+3].[Ir+3] [Complex 1c]	55 ± 8	54 ± 5	28 ± 4	moderate cytotoxicity	30 ± 4	39 ± 7	38 ± 3	> 50	27 ± 2	45 ± 8	44 ± 8	no significant variations	13 ± 1	27 ± 3	28 ± 5	36 ± 2			
CC1=C(C)[C](c2ccc(O)cc2)([Ir]([Cl])[Cl])C(C)=C1C.CC1=C(C)[C](c2ccc(O)cc2)([Ir]([Cl])[Cl])C(C)=C1C [Complex 1e]	94 ± 8	> 100	> 100	substantially inactive	80 ± 3		79 ± 8	> 100	> 100	> 100	> 100			90 ± 14	88 ± 12	> 100	80 to 90	rapid conversion into 3	
CS(C)=O.Cc1c(C)c(C)[c-](-c2ccc(O)cc2)c1C.[Cl][Ir+][Cl] [Complex 3, (4-(2,3,4,5-tetramethylcyclopenta-1,4-dien-1-yl)phenol)dimethylsulfoxide iridium(III)dichloride]	> 100	> 100	> 100	inactive	> 100		> 100	> 100	> 100	> 100	> 100			> 100	> 100	> 100			98
